Measured values taken from PubChem BioAssay (NCI).
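Dose response: 5 concentrations. Exposure: 48 h. Format: 96-well plates. Endpoint: linear interpolation; highest concentration if not reached. Here, GI50 denotes the concentration required for 50% inhibition of growth. TGI: concentration producing complete growth inhibition.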

How the values were obtained:
Assay in all cases: NCI tumour cell line growth inhibition, 48 h
OVCAR-4 ovarian = tested on: OVCAR-4 ovarian
HOP-92 NSCLC = tested on: HOP-92 NSCLC
HT29 colon = tested on: HT29 colon
RPMI-8226 leukemia = tested on: RPMI-8226 leukemia
NCI/ADR-RES ovarian = tested on: NCI/ADR-RES ovarian
SW-620 colon = tested on: SW-620 colon
U251 CNS = tested on: U251 CNS
RXF 393 renal = tested on: RXF 393 renal
TK-10 renal = tested on: TK-10 renal
SR leukemia = tested on: SR leukemia
SF-268 CNS = tested on: SF-268 CNS
SK-MEL-5 melanoma = tested on: SK-MEL-5 melanoma
UACC-62 melanoma = tested on: UACC-62 melanoma
OVCAR-5 ovarian = tested on: OVCAR-5 ovarian
T-47D breast = tested on: T-47D breast
CAKI-1 renal = tested on: CAKI-1 renal
NCI-H226 lung = tested on: NCI-H226 lung
SF-539 CNS = tested on: SF-539 CNS
PC-3 prostate = tested on: PC-3 prostate
K-562 leukemia = tested on: K-562 leukemia
CCRF-CEM leukemia = tested on: CCRF-CEM leukemia
MDA-MB-231 breast = tested on: MDA-MB-231 breast
SK-MEL-28 melanoma = tested on: SK-MEL-28 melanoma
SN12C renal = tested on: SN12C renal
ACHN renal = tested on: ACHN renal
LOX IMVI melanoma = tested on: LOX IMVI melanoma
HS 578T breast = tested on: HS 578T breast
SK-MEL-2 melanoma = tested on: SK-MEL-2 melanoma
786-0 renal = tested on: 786-0 renal
NCI-H23 lung = tested on: NCI-H23 lung
HL-60(TB) leukemia = tested on: HL-60(TB) leukemia
OVCAR-8 ovarian = tested on: OVCAR-8 ovarian
SK-OV-3 ovarian = tested on: SK-OV-3 ovarian
HCT-15 colon = tested on: HCT-15 colon
A549 NSCLC = tested on: A549 NSCLC
MOLT-4 leukemia = tested on: MOLT-4 leukemia
KM12 colon = tested on: KM12 colon
MCF7 breast = tested on: MCF7 breast
NCI-H460 lung = tested on: NCI-H460 lung
NCI-H522 lung = tested on: NCI-H522 lung
HCT-116 colon = tested on: HCT-116 colon
M14 melanoma = tested on: M14 melanoma
OVCAR-3 ovarian = tested on: OVCAR-3 ovarian
DU-145 prostate = tested on: DU-145 prostate
UO-31 renal = tested on: UO-31 renal
SNB-75 CNS = tested on: SNB-75 CNS
IGROV1 ovarian = tested on: IGROV1 ovarian
SNB-19 CNS = tested on: SNB-19 CNS
COLO 205 colon = tested on: COLO 205 colon
MDA-MB-435 = tested on: MDA-MB-435
BT-549 breast = tested on: BT-549 breast
HOP-62 NSCLC = tested on: HOP-62 NSCLC
HCC-2998 colon = tested on: HCC-2998 colon
SF-295 CNS = tested on: SF-295 CNS
UACC-257 melanoma = tested on: UACC-257 melanoma

`O=C(CC(O)c1ccncc1)c1ccccc1` (stereo not given) was tested, and the GI50 (OVCAR-4 ovarian) was 20.5 µM, the TGI (OVCAR-4 ovarian) was > 100 µM and the GI50 (HOP-92 NSCLC) was 16.1 µM. The TGI (HOP-92 NSCLC) was 69.6 µM, the GI50 (HT29 colon) was 28.6 µM and the TGI (HT29 colon) was 85.3 µM. The GI50 (RPMI-8226 leukemia) was 17.9 µM, the TGI (RPMI-8226 leukemia) was 62.6 µM and the GI50 (NCI/ADR-RES ovarian) was 29.8 µM. For the same compound, the TGI (NCI/ADR-RES ovarian) was > 100 µM, the GI50 (SW-620 colon) was 32.2 µM and the TGI (SW-620 colon) was > 100 µM. The GI50 (U251 CNS) was 28.6 µM, the TGI (U251 CNS) was > 100 µM and the GI50 (RXF 393 renal) was 21.3 µM. The TGI (RXF 393 renal) was > 100 µM, the GI50 (TK-10 renal) was 41.8 µM and the TGI (TK-10 renal) was > 100 µM. It also gave a GI50 (SR leukemia) of 18.9 µM, a TGI (SR leukemia) of 47.6 µM and a GI50 (SF-268 CNS) of 37.1 µM. The TGI (SF-268 CNS) was > 100 µM, the GI50 (SK-MEL-5 melanoma) was 16.1 µM and the TGI (SK-MEL-5 melanoma) was 30.8 µM. The GI50 (UACC-62 melanoma) was 32 µM, the TGI (UACC-62 melanoma) was > 100 µM and the GI50 (OVCAR-5 ovarian) was 37.6 µM. The TGI (OVCAR-5 ovarian) was > 100 µM, the GI50 (T-47D breast) was 25.7 µM and the TGI (T-47D breast) was > 100 µM. For the same compound, the GI50 (CAKI-1 renal) was 23.1 µM, the TGI (CAKI-1 renal) was > 100 µM and the GI50 (NCI-H226 lung) was 33.9 µM. The TGI (NCI-H226 lung) was > 100 µM, the GI50 (SF-539 CNS) was 19.5 µM and the TGI (SF-539 CNS) was 48.3 µM. For the same compound, the GI50 (PC-3 prostate) was 23.3 µM, the TGI (PC-3 prostate) was > 100 µM and the GI50 (K-562 leukemia) was 23.9 µM. The TGI (K-562 leukemia) was > 100 µM, the GI50 (CCRF-CEM leukemia) was 30.7 µM and the TGI (CCRF-CEM leukemia) was > 100 µM. For the same compound, the GI50 (MDA-MB-231 breast) was 16.7 µM, the TGI (MDA-MB-231 breast) was 54.6 µM and the GI50 (SK-MEL-28 melanoma) was 21.9 µM. For the same compound, the TGI (SK-MEL-28 melanoma) was 70.4 µM, the GI50 (SN12C renal) was 29.8 µM and the TGI (SN12C renal) was > 100 µM. The GI50 (ACHN renal) was 25.9 µM, the TGI (ACHN renal) was > 100 µM and the GI50 (LOX IMVI melanoma) was 20.9 µM. The TGI (LOX IMVI melanoma) was 49.5 µM, the GI50 (HS 578T breast) was 36.4 µM and the TGI (HS 578T breast) was > 100 µM. The GI50 (SK-MEL-2 melanoma) was 21.2 µM, the TGI (SK-MEL-2 melanoma) was 55.3 µM and the GI50 (786-0 renal) was 30 µM. The TGI (786-0 renal) was > 100 µM, the GI50 (NCI-H23 lung) was 42.8 µM and the TGI (NCI-H23 lung) was > 100 µM. The GI50 (HL-60(TB) leukemia) was 17.6 µM, the TGI (HL-60(TB) leukemia) was 59.6 µM and the GI50 (OVCAR-8 ovarian) was 33.8 µM. The TGI (OVCAR-8 ovarian) was > 100 µM, the GI50 (SK-OV-3 ovarian) was 25.4 µM and the TGI (SK-OV-3 ovarian) was 93.3 µM. For the same compound, the GI50 (HCT-15 colon) was 28.2 µM, the TGI (HCT-15 colon) was > 100 µM and the GI50 (A549 NSCLC) was 29 µM. The TGI (A549 NSCLC) was > 100 µM, the GI50 (MOLT-4 leukemia) was 22.2 µM and the TGI (MOLT-4 leukemia) was 79.4 µM. For the same compound, the GI50 (KM12 colon) was 33.7 µM, the TGI (KM12 colon) was > 100 µM and the GI50 (MCF7 breast) was 24.7 µM. The TGI (MCF7 breast) was > 100 µM, the GI50 (NCI-H460 lung) was 27.1 µM and the TGI (NCI-H460 lung) was 89.2 µM. It also gave a GI50 (NCI-H522 lung) of 29.4 µM, a TGI (NCI-H522 lung) of 99.3 µM and a GI50 (HCT-116 colon) of 19.3 µM. The TGI (HCT-116 colon) was 54.6 µM, the GI50 (M14 melanoma) was 28.6 µM and the TGI (M14 melanoma) was > 100 µM. The GI50 (OVCAR-3 ovarian) was 30.5 µM, the TGI (OVCAR-3 ovarian) was > 100 µM and the GI50 (DU-145 prostate) was 45.5 µM. For the same compound, the TGI (DU-145 prostate) was > 100 µM, the GI50 (UO-31 renal) was 22.1 µM and the TGI (UO-31 renal) was > 100 µM. For the same compound, the GI50 (SNB-75 CNS) was 17.8 µM, the TGI (SNB-75 CNS) was > 100 µM and the GI50 (IGROV1 ovarian) was 35.9 µM. For the same compound, the TGI (IGROV1 ovarian) was > 100 µM, the GI50 (SNB-19 CNS) was 34.1 µM and the TGI (SNB-19 CNS) was > 100 µM. For the same compound, the GI50 (COLO 205 colon) was 16.5 µM, the TGI (COLO 205 colon) was 31.2 µM and the GI50 (MDA-MB-435) was 20.8 µM. The TGI (MDA-MB-435) was 56.5 µM, the GI50 (BT-549 breast) was 22.4 µM and the TGI (BT-549 breast) was 88.4 µM. For the same compound, the GI50 (HOP-62 NSCLC) was 31.7 µM, the TGI (HOP-62 NSCLC) was > 100 µM and the GI50 (HCC-2998 colon) was 35 µM. For the same compound, the TGI (HCC-2998 colon) was > 100 µM, the GI50 (SF-295 CNS) was 27.7 µM and the TGI (SF-295 CNS) was > 100 µM. For the same compound, the GI50 (UACC-257 melanoma) was 23.8 µM and the TGI (UACC-257 melanoma) was 80.4 µM.
